What follows are compounds tested on KPL-4 Cells (assay: Cell Proliferation Inhibition Test (CellTiter-Glo, 72 h)). Settings: KPL4, 72 h incubation, CellTiter-Glo luminescence.
Format: cell-based
Experimental: Cell Proliferation Inhibition Test KPL-4 Cells in the logarithmic phase of growth were collected and re-suspended with fresh RPMI1640 complete cell culture medium, and adjusted to 2×10^4 cells/mL after cell counting. Cells were seeded into 96-well cell culture plates at 100 μL/well, and placed in a CO2 incubator (37° C., 5% CO2) overnight. In the next day, one of the cell culture plates were taken out, balanced to room temperature, and CellTiter-Glo reagent (Promega, USA), which was pre-balanced to room temperature and evenly mixed, was added into the plate at 100 μl. The plate was kept in dark for 30 min, and then luminescence value was read with a microplate reader (denoted as G0 value). The other cell culture plates were taken out and added with different concentrations of test compounds or DMSO (final concentration 0.5%) in corresponding wells. After incubated for 72 h in a CO2 incubator, the cell culture plates were balanced to room temperature and tested for cell viabilities using CellTiter-Glo reagent as described above (denoted as G3 value).
The cell proliferation rates were calculated using the following formula: Cell proliferation rate (%)=(mean of G3compound−mean of G0)/(mean of G3DMSO−mean of G0)×100.

Q: `CC[C@@]1(O)C(=O)OCc2c1cc1n(c2=O)Cc2c-1nc1cc(F)c(C)c3c1c2[C@@H](NC(=O)CO)CC3` [DXd, reference compound] was tested. Which GI50 did it give?
A: Its GI50 is 72 nM.

Q: `CC[C@@]1(O)C(=O)OCc2c1cc1n(c2=S)Cc2c-1nc1cc(F)c(C)c3c1c2[C@@H](NC(C)=O)CC3` [Example 3] was tested. Which GI50 did it give?
A: The GI50 was 2.59 nM.

Q: `CC[C@@]1(O)C(=O)OCc2c1cc1n(c2=S)Cc2c-1nc1cc(F)c(C)c3c1c2[C@H](NC(C)=O)CC3` [Example 4] was tested. Which GI50 did it give?
A: Its GI50 is 1.55 nM.

Q: `CC[C@@]1(O)C(=O)OCc2c1cc1n(c2=S)Cc2c-1nc1cc(F)c(C)c3c1c2[C@@H](NC(=O)C(O)c1ccccc1)CC3` (stereo partly shown) [Example 5] was tested. Which GI50 did it give?
A: Its GI50 is 1.79 nM.

Q: How did the GI50 turn out when `CC[C@@]1(O)C(=O)OCc2c1cc1n(c2=S)Cc2c-1nc1cc(F)c(C)c3c1c2[C@H](NC(=O)C(O)c1ccccc1)CC3` (stereo partly shown) [Example 6] was run?
A: Its GI50 is 5.31 nM.

Q: `CC[C@@]1(O)C(=O)OCc2c1cc1n(c2=S)Cc2c-1nc1cc(F)c(C)c3c1c2[C@@H](NC(=O)C(O)Cc1ccccc1)CC3` (stereo partly shown) [Example 7] was tested. Which GI50 did it give?
A: Its GI50 is 5.76 nM.

Q: How did the GI50 turn out when `CC[C@@]1(O)C(=O)OCc2c1cc1n(c2=S)Cc2c-1nc1cc(F)c(C)c3c1c2[C@H](NC(=O)C(O)Cc1ccccc1)CC3` (stereo partly shown) [Example 8] was run?
A: The GI50 was 4.95 nM.

Q: Which GI50 does the source give for `CC[C@@]1(O)C(=O)OCc2c1cc1n(c2=S)Cc2c-1nc1cc(F)c(C)c3c1c2[C@@H](NC(=O)C(C)(C)O)CC3` [Example 9] here?
A: Its GI50 is 12.1 nM.

Q: With `CC[C@@]1(O)C(=O)OCc2c1cc1n(c2=S)Cc2c-1nc1cc(F)c(C)c3c1c2[C@H](NC(=O)C(C)(C)O)CC3` [Example 10] as the compound, how does the GI50 read?
A: Its GI50 is 3.54 nM.

Q: Which GI50 does the source give for `CC[C@@]1(O)C(=O)OCc2c1cc1n(c2=S)Cc2c-1nc1cc(F)c(C)c3c1c2[C@@H](NC(=O)CN)CC3` [Example 13] here?
A: The GI50 was 7.54 nM.

Q: For `CC[C@@]1(O)C(=O)OCc2c1cc1n(c2=S)Cc2c-1nc1cc(F)c(C)c3c1c2[C@H](NC(=O)CN)CC3` [Example 14], which GI50 is on record?
A: The GI50 was 6.14 nM.

Q: For `CC[C@@]1(O)C(=O)OCc2c1cc1n(c2=S)Cc2c-1nc1cc(F)c(C)c3c1c2[C@@H](NC(=O)C1(O)CC1)CC3` [Example 17], which GI50 is on record?
A: Its GI50 is 1.83 nM.

Q: `CC[C@@]1(O)C(=O)OCc2c1cc1n(c2=S)Cc2c-1nc1cc(F)c(C)c3c1c2[C@H](NC(=O)C1(O)CC1)CC3` [Example 18] was tested. Which GI50 did it give?
A: Its GI50 is 3.89 nM.

Q: With `CC[C@@]1(O)C(=O)OCc2c1cc1n(c2=S)Cc2c-1nc1cc(F)c(C)c3c1c2[C@@H](NC(=O)C(O)CC1CC1)CC3` (stereo partly shown) [Example 19] as the compound, how does the GI50 read?
A: Its GI50 is 2.9 nM.

Q: How did the GI50 turn out when `CC[C@@]1(O)C(=O)OCc2c1cc1n(c2=S)Cc2c-1nc1cc(F)c(C)c3c1c2[C@H](NC(=O)C(O)CC1CC1)CC3` (stereo partly shown) [Example 20] was run?
A: The GI50 was 4.79 nM.

Q: `CC[C@@]1(O)C(=O)OCc2c1cc1n(c2=S)Cc2c-1nc1cc(F)c(C)c3c1c2[C@H](NC(=O)C(O)C1CC1)CC3` (stereo partly shown) [Example 21] was tested. Which GI50 did it give?
A: The GI50 was 34.7 nM.

Source: US20240132515A1, “TOXIN MOLECULE SUITABLE FOR ANTIBODY-DRUG CONJUGATE” (MINGHUI PHARMACEUTICAL (HANGZHOU) LIMITED, priority 2021, published 2024)
